Tests used:
HCC-2998 = assay: panel of 60 human tumor cell lines, growth inhibition (Colon Cancer); settings: HCC-2998
HCT-116 = assay: as above; settings: HCT-116
KM12 = assay: as above; settings: KM12
ACHN = assay: panel of 60 human tumor cell lines, growth inhibition (Renal Cancer)
RXF 393 = assay: as above; settings: RXF 393
SN12C = assay: as above
UO-31 = assay: as above; settings: UO-31
BT-549 = assay: panel of 60 human tumor cell lines, growth inhibition (Breast Cancer)
NCI/ADR-RES = assay: panel of 60 human tumor cell lines, growth inhibition (Ovarian Cancer)
NCI-H322M = assay: panel of 60 human tumor cell lines, growth inhibition (Non-Small Cell Lung Cancer)
[1] = 81-549, Log10 Concentration −4.0
[2] = 81-549, Log10 Concentration −5.0
[3] = 81-549, Log10 Concentration −6.0
[4] = 81-549, Log10 Concentration −7.0
[5] = 81-549, Log10 Concentration −8.0

C=C1C(=O)O[C@H]2[C@H]1CC/C(COC(=O)N1CCN(C)CC1)=C\CC[C@@]1(C)O[C@@H]21 [JVM 2-44]
Percent Growth (HCC-2998; Log10 Concentration −5.0): 90%
Mean Optical Densities (HCC-2998; Log10 Concentration −6.0): 2.049
Percent Growth (HCC-2998; Log10 Concentration −6.0): 103%
Mean Optical Densities (HCC-2998; Log10 Concentration −7.0): 1.999
Percent Growth (HCC-2998; Log10 Concentration −7.0): 99%
Mean Optical Densities (HCC-2998; Log10 Concentration −8.0): 1.968
Percent Growth (HCC-2998; Log10 Concentration −8.0): 97%
GI50 (HCT-116): 3.79 µM
TGI (HCT-116): 1.43E−5
Mean Optical Densities (HCT-116; Log10 Concentration −4.0): 0.061
Percent Growth (HCT-116; Log10 Concentration −4.0): −80%
Mean Optical Densities (HCT-116; Log10 Concentration −5.0): 0.598
Percent Growth (HCT-116; Log10 Concentration −5.0): 15%
Mean Optical Densities (HCT-116; Log10 Concentration −6.0): 2.231
Percent Growth (HCT-116; Log10 Concentration −6.0): 98%
Mean Optical Densities (HCT-116; Log10 Concentration −7.0): 2.250
Percent Growth (HCT-116; Log10 Concentration −7.0): 99%
Mean Optical Densities (HCT-116; Log10 Concentration −8.0): 2.298
Percent Growth (HCT-116; Log10 Concentration −8.0): 102%
GI50 (KM12): 14.2 µM
TGI (KM12): 3.13E−5
Mean Optical Densities (KM12; Log10 Concentration −4.0): 0.105
Percent Growth (KM12; Log10 Concentration −4.0): −74%
Mean Optical Densities (KM12; Log10 Concentration −5.0): 1.680
Percent Growth (KM12; Log10 Concentration −5.0): 72%
Mean Optical Densities (KM12; Log10 Concentration −6.0): 2.184
Percent Growth (KM12; Log10 Concentration −6.0): 101%
Mean Optical Densities (KM12; Log10 Concentration −7.0): 2.151
Percent Growth (KM12; Log10 Concentration −7.0): 99%
Mean Optical Densities (KM12; Log10 Concentration −8.0): 2.117
Percent Growth (KM12; Log10 Concentration −8.0): 97%
GI50 (ACHN): 3.83 µM
TGI (ACHN): 1.59E−5
Mean Optical Densities (ACHN; Log10 Concentration −4.0): 0.112
Percent Growth (ACHN; Log10 Concentration −4.0): −77%
Mean Optical Densities (ACHN; Log10 Concentration −5.0): 0.773
Percent Growth (ACHN; Log10 Concentration −5.0): 19%
Mean Optical Densities (ACHN; Log10 Concentration −6.0): 1.883
Percent Growth (ACHN; Log10 Concentration −6.0): 93%
Mean Optical Densities (ACHN; Log10 Concentration −7.0): 1.961
Percent Growth (ACHN; Log10 Concentration −7.0): 9B
Mean Optical Densities (ACHN; Log10 Concentration −8.0): 2.010
Percent Growth (ACHN; Log10 Concentration −8.0): 101%
GI50 (RXF 393): 2.55 µM
TGI (RXF 393): 8.91E−6
Mean Optical Densities (RXF 393; Log10 Concentration −4.0): 0.329
Percent Growth (RXF 393; Log10 Concentration −4.0): −71%
Mean Optical Densities (RXF 393; Log10 Concentration −5.0): 1.871
Percent Growth (RXF 393; Log10 Concentration −5.0): −5%
Mean Optical Densities (RXF 393; Log10 Concentration −6.0): 1.644
Percent Growth (RXF 393; Log10 Concentration −6.0): 87%
Mean Optical Densities (RXF 393; Log10 Concentration −7.0): 1.692
Percent Growth (RXF 393; Log10 Concentration −7.0): 96%
Mean Optical Densities (RXF 393; Log10 Concentration −8.0): 1.646
Percent Growth (RXF 393; Log10 Concentration −8.0): 88%
GI50 (SN12C): 4.4 µM
TGI (SN12C): 2.80E−5
Mean Optical Densities (SN12C; Log10 Concentration −4.0): 0.189
Percent Growth (SN12C; Log10 Concentration −4.0): −64%
Mean Optical Densities (SN12C; Log10 Concentration −5.0): 0.932
Percent Growth (SN12C; Log10 Concentration −5.0): 28%
Mean Optical Densities (SN12C; Log10 Concentration −6.0): 1.835
Percent Growth (SN12C; Log10 Concentration −6.0): 90%
Mean Optical Densities (SN12C; Log10 Concentration −7.0): 1.898
Percent Growth (SN12C; Log10 Concentration −7.0): 94%
Mean Optical Densities (SN12C; Log10 Concentration −8.0): 1.940
Percent Growth (SN12C; Log10 Concentration −8.0): 97%
GI50 (UO-31): 3.08 µM
TGI (UO-31): 1.54E−5
Mean Optical Densities (UO-31; Log10 Concentration −4.0): 0.127
Percent Growth (UO-31; Log10 Concentration −4.0): −83%
Mean Optical Densities (UO-31; Log10 Concentration −5.0): 0.983
Percent Growth (UO-31; Log10 Concentration −5.0): 19%
Mean Optical Densities (UO-31; Log10 Concentration −6.0): 1.744
Percent Growth (UO-31; Log10 Concentration −6.0): 80%
Mean Optical Densities (UO-31; Log10 Concentration −7.0): 1.737
Percent Growth (UO-31; Log10 Concentration −7.0): 79%
Mean Optical Densities (UO-31; Log10 Concentration −8.0): 1.731
Percent Growth (UO-31; Log10 Concentration −8.0): 79%
TGI (BT-549; 81-549): 1.81E−5
Mean Optical Densities (BT-549; [1]): 0.180
Percent Growth (BT-549; [1]): −86%
Mean Optical Densities (BT-549; [2]): 1.522
Percent Growth (BT-549; [2]): 30%
Mean Optical Densities (BT-549; [3]): 1.985
Percent Growth (BT-549; [3]): 84%
Mean Optical Densities (BT-549; [4]): 1.951
Percent Growth (BT-549; [4]): 80%
Mean Optical Densities (BT-549; [5]): 2.028
Percent Growth (BT-549; [5]): 89%
GI50 (NCI/ADR-RES): 24.6 µM
TGI (NCI/ADR-RES): >1.00E−4
Mean Optical Densities (NCI/ADR-RES; Log10 Concentration −4.0): 0.606
Percent Growth (NCI/ADR-RES; Log10 Concentration −4.0): 1%
Mean Optical Densities (NCI/ADR-RES; Log10 Concentration −5.0): 1.819
Percent Growth (NCI/ADR-RES; Log10 Concentration −5.0): 82%
Mean Optical Densities (NCI/ADR-RES; Log10 Concentration −6.0): 2.094
Percent Growth (NCI/ADR-RES; Log10 Concentration −6.0): 100%
Mean Optical Densities (NCI/ADR-RES; Log10 Concentration −7.0): 2.049
Percent Growth (NCI/ADR-RES; Log10 Concentration −7.0): 97%
Mean Optical Densities (NCI/ADR-RES; Log10 Concentration −8.0): 2.060
Percent Growth (NCI/ADR-RES; Log10 Concentration −8.0): 98%
GI50 (NCI-H322M): 16.2 µM
TGI (NCI-H322M): 5.44E−5
Mean Optical Densities (NCI-H322M; Log10 Concentration −4.0): 0.569
Percent Growth (NCI-H322M; Log10 Concentration −4.0): −25%
Mean Optical Densities (NCI-H322M; Log10 Concentration −5.0): 1.434
Percent Growth (NCI-H322M; Log10 Concentration −5.0): 70%
Mean Optical Densities (NCI-H322M; Log10 Concentration −6.0): 1.650
Percent Growth (NCI-H322M; Log10 Concentration −6.0): 93%
Mean Optical Densities (NCI-H322M; Log10 Concentration −7.0): 1.624
Percent Growth (NCI-H322M; Log10 Concentration −7.0): 91%
Mean Optical Densities (NCI-H322M; Log10 Concentration −8.0): 1.649
Percent Growth (NCI-H322M; Log10 Concentration −8.0): 93%

From patent US9469650B2, “Melampomagnolide B derivatives” (BOARD OF TRUSTEES OF THE UNIVERSITY OF ARKANSAS, priority 2013, dated 2016)
